What was measured:
[1] = tested on: Akt serine-473 phosphorylation; test: In vitro phospho-Akt cellular assay; type: cell-based; settings: Homo sapiens; HEK293T/17 cells, 2 hours; read-out: pAkt inhibition value (IC50), activity level
Source text: Activation of mTOR signaling results in phosphorylation of several downstream targets. In cells, mTOR exists in two different protein complexes. The mTOR Complex-1 (mTORC1) phosphorylates and activates S6 Kinase 1 (S6K1) and S6 Kinase 2 (S6K2) (also known as p70S6K) which then phosphorylate S6 Ribosomal Protein (S6RP) (also known as RPS6)3. S6RP is phosphorylated on serine 235, serine 236, serine 240 and serine 244 by both pS6K1 and pS6K2. The mTOR Complex-2 (mTORC2) phosphorylates AKT on serine 473 which activates the AKT signaling pathway.
The assay measures a test compound's inhibition of S6RP serine-240/244 phosphorylation and inhibition of Akt serine-473 phosphorylation in human embryonic kidney derived HEK293T/17 cells (ATCC CRL-11268).
The HEK293T/17 cell line is maintained in DMEM media (Invitrogen catalogue number 41965-039) supplemented with 10% FCS at 37° C. in a 5% CO2 humidified incubator.
Cells are seeded in 96-well plates at 40,000 cells/well (pS6RP S240/244 assay) or 80,000 cells/well (pAkt S473 assay) in 90 μl growth media (DMEM, 2% FCS). Plates are incubated for 1 hour in a humidified incubator to allow the cells to adhere. Cells are treated with 8 concentrations of test compounds or DMSO alone for controls (final DMSO concentration 0.1%) and incubated at 37° C. for 2 hours. Then 20 μl of 5× concentrated lysis buffer (750 mM NaCl, 100 mM Tris pH7.4, 5 mM ADTA, 5 mM EGTA, 5% Triton X-100) is added, plates are sealed and incubated for 15 minutes at 4° C. with gentle shaking. After cell lysis, 25 μl cell lysate is transferred to a MesoScale plate coated with an antibody to pS6RP Ser240/244 (MesoScale Discovery K150DGD-3) or an antibody to pAkt Ser 473 (MesoScale Discovery K151DGD-3). Plates have been blocked before by incubation with 150 μl MesoScale Discovery Blocking Solution-A for 1 hour at room temperature followed by washing with 150 μl 1× Tris wash buffer per well. After the transfer of the cell lysate to the MSD plate, the pS6RP (or pAkt) protein is captured on the coated antibody by incubation at room temperature for 1 hour with gentle shaking. After the capture step the plate is washed three times with 150 μl of 1× Tris wash buffer per well. Then 25 μl detection antibody conjugated with a Sulfo-Tag is added and incubated for 1 hour at room temperature with gentle shaking. Subsequently the antibody solution is removed and the plate is washed 3 times with 150 μl 1× Tris wash buffer per well and 150 μl Read buffer is added. The plates are analysed on a MSD 2400 Plate Reader (MesoScale Discovery). Data analysis is performed using nonlinear regression for a sigmoidal dose-response with a variable slope.

[2] = biological target: DNA-dependent protein kinase (DNA-PK) (Homo sapiens, UniProt P78527); test: biochemical
DNA-dependent protein kinase (DNA-PK), sequence (P78527 whole entry): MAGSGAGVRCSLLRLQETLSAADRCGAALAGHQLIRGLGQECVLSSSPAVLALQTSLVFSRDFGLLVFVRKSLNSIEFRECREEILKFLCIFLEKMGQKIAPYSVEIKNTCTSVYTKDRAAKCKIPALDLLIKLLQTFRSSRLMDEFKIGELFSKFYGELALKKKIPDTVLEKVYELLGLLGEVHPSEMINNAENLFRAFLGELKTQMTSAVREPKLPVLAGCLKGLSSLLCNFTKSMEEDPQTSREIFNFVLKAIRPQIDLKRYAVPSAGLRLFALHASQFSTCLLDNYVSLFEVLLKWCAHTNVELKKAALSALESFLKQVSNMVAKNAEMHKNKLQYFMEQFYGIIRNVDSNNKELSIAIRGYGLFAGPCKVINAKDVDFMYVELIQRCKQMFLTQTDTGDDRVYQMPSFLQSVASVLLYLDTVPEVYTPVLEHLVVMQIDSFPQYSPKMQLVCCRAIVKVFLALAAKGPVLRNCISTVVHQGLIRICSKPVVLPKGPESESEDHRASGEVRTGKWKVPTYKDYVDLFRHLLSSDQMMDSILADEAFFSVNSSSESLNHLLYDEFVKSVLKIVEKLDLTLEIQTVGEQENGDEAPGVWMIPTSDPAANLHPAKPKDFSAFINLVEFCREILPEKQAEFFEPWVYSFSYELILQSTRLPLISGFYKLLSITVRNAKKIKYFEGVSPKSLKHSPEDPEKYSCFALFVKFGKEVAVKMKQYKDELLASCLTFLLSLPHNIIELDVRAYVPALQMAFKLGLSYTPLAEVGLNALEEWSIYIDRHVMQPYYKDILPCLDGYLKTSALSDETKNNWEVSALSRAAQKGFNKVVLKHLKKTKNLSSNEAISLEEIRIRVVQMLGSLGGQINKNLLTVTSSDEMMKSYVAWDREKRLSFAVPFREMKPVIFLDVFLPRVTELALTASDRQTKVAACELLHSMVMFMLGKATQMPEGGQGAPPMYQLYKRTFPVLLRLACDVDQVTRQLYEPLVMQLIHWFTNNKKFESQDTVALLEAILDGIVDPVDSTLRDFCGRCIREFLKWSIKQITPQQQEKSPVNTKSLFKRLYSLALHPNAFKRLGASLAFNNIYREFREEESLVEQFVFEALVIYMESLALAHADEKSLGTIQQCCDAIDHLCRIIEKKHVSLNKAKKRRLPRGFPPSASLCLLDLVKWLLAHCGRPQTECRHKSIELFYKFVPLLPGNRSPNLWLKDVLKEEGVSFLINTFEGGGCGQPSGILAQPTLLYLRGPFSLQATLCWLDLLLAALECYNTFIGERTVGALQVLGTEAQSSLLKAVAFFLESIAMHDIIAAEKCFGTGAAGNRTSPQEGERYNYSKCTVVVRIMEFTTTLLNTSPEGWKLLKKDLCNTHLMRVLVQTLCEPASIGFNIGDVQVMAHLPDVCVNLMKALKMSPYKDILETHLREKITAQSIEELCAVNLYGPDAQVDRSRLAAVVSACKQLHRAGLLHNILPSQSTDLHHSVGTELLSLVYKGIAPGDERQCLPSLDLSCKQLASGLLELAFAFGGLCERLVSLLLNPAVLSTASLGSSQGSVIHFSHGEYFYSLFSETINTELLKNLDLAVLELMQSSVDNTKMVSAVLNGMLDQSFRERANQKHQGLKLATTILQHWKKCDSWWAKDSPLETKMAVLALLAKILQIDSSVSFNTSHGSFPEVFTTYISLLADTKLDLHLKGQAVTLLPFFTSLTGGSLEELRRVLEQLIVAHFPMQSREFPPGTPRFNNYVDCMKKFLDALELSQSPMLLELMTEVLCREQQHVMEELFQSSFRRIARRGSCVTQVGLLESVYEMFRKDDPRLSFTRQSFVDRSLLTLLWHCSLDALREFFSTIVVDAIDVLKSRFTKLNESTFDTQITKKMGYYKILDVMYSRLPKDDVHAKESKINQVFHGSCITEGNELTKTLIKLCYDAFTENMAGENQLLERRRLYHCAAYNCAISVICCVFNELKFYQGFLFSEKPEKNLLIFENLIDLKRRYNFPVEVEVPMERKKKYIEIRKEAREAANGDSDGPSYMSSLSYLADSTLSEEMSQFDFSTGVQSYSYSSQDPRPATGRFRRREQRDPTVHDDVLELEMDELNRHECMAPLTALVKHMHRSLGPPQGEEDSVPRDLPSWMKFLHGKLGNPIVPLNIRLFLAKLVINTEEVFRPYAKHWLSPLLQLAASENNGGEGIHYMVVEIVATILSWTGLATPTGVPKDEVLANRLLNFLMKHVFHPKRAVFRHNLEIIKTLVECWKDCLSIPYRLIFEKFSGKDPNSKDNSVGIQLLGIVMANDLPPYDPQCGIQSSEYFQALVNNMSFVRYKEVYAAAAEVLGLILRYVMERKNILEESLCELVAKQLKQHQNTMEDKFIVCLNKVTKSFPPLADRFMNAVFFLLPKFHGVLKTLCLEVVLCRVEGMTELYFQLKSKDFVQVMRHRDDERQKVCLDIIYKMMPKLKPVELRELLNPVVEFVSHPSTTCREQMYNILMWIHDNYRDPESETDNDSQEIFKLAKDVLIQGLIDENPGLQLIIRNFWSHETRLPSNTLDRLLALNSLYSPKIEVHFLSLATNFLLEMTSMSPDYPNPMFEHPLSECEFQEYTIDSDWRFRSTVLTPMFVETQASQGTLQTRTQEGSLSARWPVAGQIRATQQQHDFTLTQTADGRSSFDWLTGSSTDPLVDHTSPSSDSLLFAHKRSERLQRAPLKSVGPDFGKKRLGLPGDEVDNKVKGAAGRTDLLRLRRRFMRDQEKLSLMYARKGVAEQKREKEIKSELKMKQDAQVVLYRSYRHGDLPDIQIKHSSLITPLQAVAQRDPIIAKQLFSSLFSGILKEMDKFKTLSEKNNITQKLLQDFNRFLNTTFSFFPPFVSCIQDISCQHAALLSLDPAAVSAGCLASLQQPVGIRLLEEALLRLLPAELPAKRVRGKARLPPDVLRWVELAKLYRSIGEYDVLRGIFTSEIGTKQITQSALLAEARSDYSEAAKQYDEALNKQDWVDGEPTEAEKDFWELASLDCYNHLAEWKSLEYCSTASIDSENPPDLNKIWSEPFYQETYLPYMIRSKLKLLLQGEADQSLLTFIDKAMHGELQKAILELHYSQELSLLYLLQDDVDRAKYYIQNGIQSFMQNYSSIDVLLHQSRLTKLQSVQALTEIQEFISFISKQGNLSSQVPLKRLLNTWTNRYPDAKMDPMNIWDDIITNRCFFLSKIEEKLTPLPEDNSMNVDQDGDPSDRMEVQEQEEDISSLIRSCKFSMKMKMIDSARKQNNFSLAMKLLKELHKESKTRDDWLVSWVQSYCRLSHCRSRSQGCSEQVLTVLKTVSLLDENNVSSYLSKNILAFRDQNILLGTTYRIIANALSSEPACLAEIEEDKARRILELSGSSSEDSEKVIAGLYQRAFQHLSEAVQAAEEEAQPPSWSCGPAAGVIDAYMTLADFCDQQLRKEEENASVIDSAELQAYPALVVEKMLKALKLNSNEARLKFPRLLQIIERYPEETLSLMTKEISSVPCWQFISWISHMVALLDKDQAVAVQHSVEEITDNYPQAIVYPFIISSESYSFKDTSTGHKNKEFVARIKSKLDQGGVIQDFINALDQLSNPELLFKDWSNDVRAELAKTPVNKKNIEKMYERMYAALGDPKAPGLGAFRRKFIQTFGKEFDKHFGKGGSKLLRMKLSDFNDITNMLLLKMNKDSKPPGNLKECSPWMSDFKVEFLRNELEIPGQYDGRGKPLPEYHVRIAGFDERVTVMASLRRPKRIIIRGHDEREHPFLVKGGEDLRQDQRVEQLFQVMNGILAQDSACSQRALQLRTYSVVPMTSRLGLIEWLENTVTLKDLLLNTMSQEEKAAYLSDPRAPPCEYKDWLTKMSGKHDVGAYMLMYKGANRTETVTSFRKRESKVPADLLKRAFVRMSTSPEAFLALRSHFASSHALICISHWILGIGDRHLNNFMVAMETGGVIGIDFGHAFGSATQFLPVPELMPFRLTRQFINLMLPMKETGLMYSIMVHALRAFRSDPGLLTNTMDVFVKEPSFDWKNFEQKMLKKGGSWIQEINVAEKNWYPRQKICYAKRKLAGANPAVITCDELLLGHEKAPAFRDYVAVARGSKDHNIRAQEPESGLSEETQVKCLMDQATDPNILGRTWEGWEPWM

[3] = biological target: mTOR (Homo sapiens, UniProt P42345); test: biochemical
[4] = tested on: S6RP serine-240/244 phosphorylation; test: In vitro phospho-S6 cellular assay; type: cell-based; settings: Homo sapiens; HEK293T/17 cells, 2 hours; read-out: pS6 inhibition value (IC50), activity level
Method in brief: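 HEK293T/17 cells (40,000/well for pS6RP, 80,000/well for pAkt) in DMEM, 2% FCS treated 2 h at 37 °C with 8 compound concentrations (0.1% DMSO). Lysates assayed by MesoScale sandwich electrochemiluminescence for pS6RP Ser240/244 or pAkt Ser473. Curves fitted by sigmoidal variable-slope regression.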

[5] = Bi-directional Caco-2 permeability assay; type: in vitro ADME; settings: human, pH 7.4, Caco-2, 10 uM, pH7.4, read-out: Efflux ratio (ER), Papp B>A/Papp A>B
Protocol: Bi-directional Caco-2 assays to assess the permeability of compounds in the gi tract, were performed as described below.
2×10^5 cells/well were seeded in plating medium consisting of DMEM+GlutaMAXI+1% NEAA+10% FBS (FetalClone II)+1% Pen/Strep. The medium was changed every 2-3 days.
50 uM Lucifer Yellow (Sigma) was added to the donor buffer in all wells to assess integrity of the cell layers by monitoring Lucifer Yellow permeation. As Lucifer Yellow (LY) cannot freely permeate lipophilic barriers, a high degree of LY transport indicates poor integrity of the cell layer. After a 1 hr incubation at 37° C. while shaking at an orbital shaker at 150 rpm, 70 ul aliquots were taken from both apical (A) and basal (B) chambers and added to 100 ul 50:50 acetonitrile:water solution containing analytical internal standard (0.5 uM carbamazepine) in a 96 well plate.
Concentrations of compound in the samples were measured by high performance liquid-chromatography/mass spectroscopy (LC-MS/MS).
The Efflux ratio, as an indication of active efflux from the apical cell surface of Caco-2 cells, was calculated using the ratio of Papp B>A/Papp A>B.

[6] = tested on: IFNγ release in whole blood; test: In vitro human whole blood assay (IFNγ release); type: cell-based; settings: αCD3/αCD28 and IL-2 stimulation, 18 hours, read-out: WB inhibition value (pIC50) (converted)
Protocol: This assay measures IFNγ release in whole blood after αCD3/αCD28 and IL-2 treatment. The whole blood contains circulating T lymphocytes; αCD3/αCD28 stimulation mimics antigen receptor signalling, resulting in epigenetic changes to the IFNG gene locus, such that when IL-2 is added, IFNγ is produced.
Human whole blood, with Na-heparin as the anticoagulant, is obtained from Clinical Trials Laboratory Services. Blood is diluted 1.4 times with RPMI 1640 (Lonza, BE12-167F) and 175 μl/well is distributed in a low evaporation 96-well plates (Falcon, BD Labware, 353072). Blood is treated with 10 concentrations of test compounds or DMSO alone for controls (final DMSO concentration 0.2%) and incubated at 37° C. for 1 hour. Blood is then stimulated with 1 μg/ml αCD3 (R&D Systems, MAB100), 1 μg/ml αCD28 (BD Pharmingen, 555725) and IL-2 at 10 ng/ml (Peprotech, 200-02). Blood is then left to incubate at 37° C. for 18 hours. After, plates are spun at 250 g for 5 minutes to pellet blood cells and 25 μl of plasma is transferred to a MesoScale plate coated with an antibody to IFNγ (MesoScale Discovery K151AEC-2) containing 25 μl/well MesoScale Discovery Blocking Solution-2. Plates have been blocked by incubating with 25 μl/well MesoScale Discovery Blocking Solution-2 for 30 minutes at room temperature. After the transfer of sera to the MSD plate, the IFNγ protein is captured on the coated antibody by incubation at room temperature for 2 hour with gentle shaking. After the capture step the plate is washed three times with 150 μl/well of 1×PBS-Tween wash buffer and 25 μl/well detection antibody conjugated with a Sulfo-Tag is added and incubated for 2 hours at room temperature with gentle shaking. Subsequently the antibody solution is removed and the plate is washed 3 times with 150 μl/well 1×PBS-Tween wash buffer and 150 μl/well MesoScale Discovery Read buffer is added. The plates are analysed on a MSD 2400 Plate Reader (MesoScale Discovery). Data analysis is performed using nonlinear regression for a sigmoidal dose-response with a variable slope.

Row | IC50 [1] [nM] | IC50 [2] [nM] | IC50 [3] [nM] | IC50 [4] [nM] | IC50 [6] [nM] | SMILES | efflux ratio at 1 h, 10 uM [5]
1 | < 100 | > 10000 | < 100 | < 100 |  | C[C@H]1COCCN1c1nc(-c2ccc(NC(=O)NC3CC3)cc2)nc2c1CSC2 [Example 1, (S)-1-cyclopropyl-3-(4-(4-(3-methylmorpholino)-5,7-dihydrothieno[3,4-d]pyrimidin-2-yl)phenyl)urea] | 
2 | < 100 |  | < 100 | < 100 |  | C[C@H]1COCCN1c1nc(-c2ccc(NC(=O)NC3CC3)cc2)nc2c1[C@H](C)S(=O)(=O)C2 (single isomer, unassigned) [Example 10] | 
3 | < 100 |  | < 100 | < 100 |  | C[C@H]1COCCN1c1nc(-c2ccc(NC(=O)NC3CC3)cc2)nc2c1CS(=O)(=O)C2 [Example 2, (S)-1-cyclopropyl-3-(4-(4-(3-methylmorpholino)-6,6-dioxido-5,7-dihydrothieno[3,4-d]pyrimidin-2-yl)phenyl)urea] | 
4 | < 100 |  | < 100 | < 100 |  | C[C@@H]1c2c(nc(-c3ccc(NC(=O)NC4CC4)cc3)nc2N2CCOC[C@@H]2C)CS1(=O)=O (single isomer, unassigned) [Example 9] | 
5 |  | > 10000 | < 100 | < 100 |  | CCC1COCCN1c1nc(-c2ccc(NC(=O)NC3CC3)cc2)nc2c1CS(=O)(=O)C2 (centres unmarked) [Example 27, 1-cyclopropyl-3-(4-(4-(3-ethylmorpholino)-6,6-dioxido-5,7-dihydrothieno[3,4-d]pyrimidin-2-yl)phenyl)urea] | 25
6 |  | > 10000 | < 100 | < 100 | 398 | CC1Cc2nc(-c3ccc(NC(=O)NC4CC4)cc3)nc(N3CCOC[C@@H]3C)c2C(C)S1(=O)=O (stereo partly drawn) [Example 72, 1-cyclopropyl-3-(4-(5,7-dimethyl-4-((S)-3-methylmorpholino)-6,6-dioxido-7,8-dihydro-5H-thiopyrano[4,3-d]pyrimidin-2-yl)phenyl)urea] | 
7 |  | > 10000 | < 100 | < 100 | 251 | C[C@H]1COCCN1c1nc(-c2ccc(NC(=O)NCCF)cc2)nc2c1CS(=O)(=O)C2(C)C [Example 61, (S)-1-(4-(7,7-dimethyl-4-(3-methylmorpholino)-6,6-dioxido-5,7-dihydrothieno[3,4-d]pyrimidin-2-yl)phenyl)-3-(2-fluoroethyl)urea] | 
8 | < 100 | > 10000 | < 100 | < 100 |  | C[C@H]1COCCN1c1nc(-c2ccc(NC(=O)NC3CC3)cc2)nc2c1S(=O)(=O)CC2 [Example 5, (S)-1-cyclopropyl-3-(4-(4-(3-methylmorpholino)-5,5-dioxido-6,7-dihydrothieno[3,2-d]pyrimidin-2-yl)phenyl)urea] | 
9 |  | > 10000 | < 100 | < 100 | 1000 | CNC(=O)Nc1ccc(-c2nc(N3CCOC[C@@H]3C)c3c(n2)C(C)(C)S(=O)(=O)C3)c(F)c1 [Example 66, (S)-1-(4-(7,7-dimethyl-4-(3-methylmorpholino)-6,6-dioxido-5,7-dihydrothieno[3,4-d]pyrimidin-2-yl)-3-fluorophenyl)-3-methylurea] | 
10 |  | > 10000 | < 100 | < 100 | 158 | CC[C@H]1COCCN1c1nc(-c2ccc(NC(=O)NC3CC3)cc2)nc2c1CS(=O)(=O)C2(C)C [Example 51, (S)-1-cyclopropyl-3-(4-(4-(3-ethylmorpholino)-7,7-dimethyl-6,6-dioxido-5,7-dihydrothieno[3,4-d]pyrimidin-2-yl)phenyl)urea] | 

Row | SMILES | IC50 [1] [nM] | IC50 [2] [nM] | IC50 [3] [nM] | IC50 [4] [nM] | IC50 [6] [nM] | efflux ratio at 1 h, 10 uM [5]
11 | CCNC(=O)Nc1ccc(-c2nc(N3CCOC[C@@H]3C)c3c(n2)C(C)(C)S(=O)(=O)C3)cc1 [Example 62, (S)-1-(4-(7,7-dimethyl-4-(3-methylmorpholino)-6,6-dioxido-5,7-dihydrothieno[3,4-d]pyrimidin-2-yl)phenyl)-3-ethylurea] |  | > 10000 |  | < 100 | 200 | 22

— US9242993B2, “Morpholino substituted bicyclic pyrimidine urea or carbamate derivatives as mTOR inhibitors” (CELLZOME LIMITED, priority 2011, dated 2016)
